# US11414450B1, “Aminoglycosides and uses thereof” (REVAGENIX, INC., priority 2017, dated 2022)
# Legend:
# E. coli ATCC 25922 = experiment: Minimum inhibitory concentration (broth microdilution, CLSI), E. coli ATCC 25922; format: cell-based
# Description: (§1) Minimum inhibitory concentrations for the example compounds herein are determined by the broth microdilution method in accordance with the Clinical and Laboratory Standards Institute (CLSI) guidelines. In brief, organism suspensions are adjusted to a 0.5 McFarland standard to yield a final inoculum between 3×10^5 and 7×10^5 colony-forming units (CFU)/mL. Compound dilutions and inocula are made in sterile, cation adjusted Mueller-Hinton Broth (Beckton Dickinson). The inoculum is prepared by suspension of a colony from an agar plate that is prepared the previous day. Bacteria are suspended in sterile saline and added to each assay plate to obtain a final concentration of 5×10^5 CFU/mL. An inoculum volume of 100 μL is added to wells containing 100 μL of broth with 2-fold serial dilutions of the compound. All inoculated microdilution trays are incubated in ambient air at 35° C. for 18-24 hours. Following incubation, the lowest concentration of the compound that prevents visible growth (OD 600 nm<0.05) is recorded as the MIC. […] Performance of the assay is monitored by the use of laboratory quality-control strains and a compound with a defined MIC spectrum (such as levofloxacin), in accordance with CLSI guidelines. Compounds are tested against multiple microbiologic panels. Panels include: 1) a multi-species primary screening panel that includes multiple defined AG-R mechanisms; 2) a panel of isogenic strains carrying different common mechanisms of AG-R that allows characterization of the SAR for AMEs, RMTs, and entry and efflux resistance mechanisms; and 3) panels of recent clinical isolates selected from Phase 3 studies and ongoing global surveillance.
# E. coli efflux parent = experiment: MIC broth microdilution, E. coli efflux parent strain; format: cell-based
# Description: as §1
# [1] = tested on: E. coli Δefflux (tolC efflux pump knocked-out); experiment: MIC broth microdilution, E. coli Δefflux strain (tolC knocked out); format: cell-based
# Description: as §1
# [2] = tested on: E. coli isogenic strain empty vector; experiment: MIC broth microdilution, E. coli isogenic strain, empty vector; format: cell-based
# Description: as §1
# [3] = tested on: E. coli isogenic strain aac(6′)-Ib; experiment: MIC broth microdilution, E. coli isogenic strain aac(6′)-Ib; format: cell-based
# Description: as §1
# [4] = tested on: E. coli isogenic strain aph(3′)-II; experiment: MIC broth microdilution, E. coli isogenic strain aph(3′)-II; format: cell-based
# Description: as §1
# [5] = tested on: E. coli isogenic strain aph(3′)-Ia; experiment: MIC broth microdilution, E. coli isogenic strain aph(3′)-Ia; format: cell-based
# Description: as §1
# [6] = tested on: E. coli isogenic strain armA; experiment: MIC broth microdilution, E. coli isogenic strain armA; format: cell-based
# Description: as §1
# [7] = tested on: E. coli isogenic strain nmpA; experiment: MIC broth microdilution, E. coli isogenic strain nmpA; format: cell-based
# Description: as §1
# P. aeruginosa ATCC 27853 = experiment: MIC broth microdilution, P. aeruginosa ATCC 27853; format: cell-based
# Description: as §1
# [8] = tested on: P. aeruginosa efflux parent; experiment: MIC broth microdilution, P. aeruginosa efflux parent strain; format: cell-based
# Description: as §1
# [9] = tested on: P. aeruginosa Δefflux (MexAB-OprM, MexCD-OprJ, MexEF-OprN knocked out); experiment: MIC broth microdilution, P. aeruginosa Δefflux strain; format: cell-based
# Description: as §1
# translation = experiment: Translation Inhibition Assay; format: biochemical
# From the text: Biological Example 2: Translation Inhibition Assay
# [10] = Table 1, MexEF-OprN efflux pumps knocked out
# [11] = Table 2, strain contains aph(3′)-IIb
# [12] = Table 2, MexEF-OprN efflux pumps knocked out
smiles,measurement,setting,value
CO[C@@H]1[C@@H](O[C@@H]2O[C@H](CO)[C@@H](O[C@H]3O[C@@H](CN)[C@@H](O)[C@H](O)[C@H]3N)[C@H]2O)[C@H](O[C@H]2O[C@H](CN)CC[C@H]2N)[C@@H](N)C[C@H]1N [drawing 889],MIC,"E. coli ATCC 25922; Escherichia coli, ATCC25922, E. coli ATCC 25922, broth microdilution, read-out: Geometric Mean MIC values, E. coli ATCC 25922",1 µg/mL
same,MIC,"E. coli efflux parent; Escherichia coli, E. coli efflux parent strain, read-out: Geometric Mean MIC values, E. coli efflux parent",0.5 µg/mL
same,"Geometric Mean MIC values, E. coli Δefflux",[1]; E. coli Δefflux,0.5 µg/mL
same,MIC,"[2]; Escherichia coli, read-out: Geometric Mean MIC values, E. coli isogenic strains empty vector",0.5 µg/mL
same,MIC,"[3]; Escherichia coli, read-out: Geometric Mean MIC values, E. coli isogenic strains aac(6′)-Ib",8 µg/mL
same,MIC,"[4]; Escherichia coli, read-out: Geometric Mean MIC values, E. coli isogenic strains aph(3′)-II",0.5 µg/mL
same,MIC,"[5]; Escherichia coli, read-out: Geometric Mean MIC values, E. coli isogenic strains aph(3′)-Ia",16 µg/mL
same,MIC,"[6]; Escherichia coli, read-out: Geometric Mean MIC values, E. coli isogenic strains armA",0.5 µg/mL
same,MIC,"[7]; Escherichia coli, read-out: Geometric Mean MIC values, E. coli isogenic strains npmA",> 32 µg/mL
CCC(N)C1CCC(N)C(OC2C(N)CC(N)C(O)C2OC2OC(CO)C(OC3OC(CN)C(O)C(O)C3N)C2O)O1 (stereo not drawn) [drawing 851],"Geometric Mean MIC values, E. coli ATCC 25922",E. coli ATCC 25922; Table 1,2 µg/mL
same,"Geometric Mean MIC values, E. coli efflux parent",E. coli efflux parent; Table 1,2 µg/mL
same,"Geometric Mean MIC values, E. coli Δefflux",[1]; Table 1,1 µg/mL
same,"Geometric Mean MIC values, P. aeruginosa ATCC 27853","P. aeruginosa ATCC 27853; Table 1, geometric mean",2 µg/mL
same,"Geometric Mean MIC values, P. aeruginosa efflux parent","[8]; Table 1, geometric mean",2 µg/mL
same,"Geometric Mean MIC values, P. aeruginosa Δefflux",[9]; [10],0.5 µg/mL
same,IC50,translation; Table 1,32 nM
NC[C@@H]1O[C@H](O[C@H]2[C@@H](O)[C@H](O[C@@H]3[C@@H](O)[C@H](N)C[C@H](N)[C@H]3O[C@H]3O[C@H](CN)[C@@H](O)C(F)(F)[C@H]3N)O[C@@H]2CO)[C@H](N)[C@@H](O)[C@@H]1O,"Geometric Mean MIC values, P. aeruginosa ATCC 27853",P. aeruginosa ATCC 27853; [11],4 µg/mL
same,"Geometric Mean MIC values, P. aeruginosa efflux parent",[8]; Table 2,8 µg/mL
same,"Geometric Mean MIC values, P. aeruginosa Δefflux",[9]; [12],1 µg/mL
same,IC50,translation; Table 2,62 nM
NCC1OC(OC2C(CO)OC(OC3C(O)C(N)CC(N)C3OC3OC(C4(N)CC4)CCC3N)C2O)C(N)C(O)C1O (stereo not drawn) [drawing 859],"Geometric Mean MIC values, E. coli ATCC 25922",E. coli ATCC 25922; Table 2,1 µg/mL
same,"Geometric Mean MIC values, E. coli efflux parent",E. coli efflux parent; Table 2,1 µg/mL
same,"Geometric Mean MIC values, E. coli Δefflux",[1]; Table 2,1 µg/mL
same,"Geometric Mean MIC values, E. coli isogenic strains, empty vector",[2]; Table 2,0.5 µg/mL
same,"Geometric Mean MIC values, E. coli isogenic strains, aac(6′)-Ib",[3]; Table 2,1 µg/mL
same,"Geometric Mean MIC values, E. coli isogenic strains, aph(3′)-II",[4]; Table 2,1 µg/mL
same,"Geometric Mean MIC values, E. coli isogenic strains, aph(3′)-Ia","[5]; Table 2, aph(3′)-Ia has activity at both the 3′-hydroxy and 5″-hydroxy positions",>32 µg/mL
same,"Geometric Mean MIC values, E. coli isogenic strains, armA",[6]; Table 2,4 µg/mL
same,"Geometric Mean MIC values, E. coli isogenic strains, nmpA",[7]; Table 2,32 µg/mL
"NC[C@@H]1O[C@H](O[C@H]2[C@@H](O)[C@H](O[C@@H]3[C@@H](O)[C@H](N)C[C@H](N)[C@H]3O[C@H]3O[C@H](CN)[C@@H](O)[C@H](O)[C@H]3N)O[C@@H]2CO)[C@H](N)[C@@H](O)[C@@H]1O [drawing 881, neomycin, reference compound]","Geometric Mean MIC values, P. aeruginosa ATCC 27853",P. aeruginosa ATCC 27853; [11],1 µg/mL
same,"Geometric Mean MIC values, P. aeruginosa efflux parent",[8]; Table 2,6.8 µg/mL
same,"Geometric Mean MIC values, P. aeruginosa Δefflux",[9]; [12],2.2 µg/mL
same,IC50,translation; Table 2,7.3 nM
NC[C@@H]1O[C@H](O[C@H]2[C@@H](O)[C@H](O[C@@H]3[C@@H](O)[C@H](N)C[C@H](N)[C@H]3O[C@H]3O[C@H](CN)C(F)(F)[C@H](O)[C@H]3N)O[C@@H]2CO)[C@H](N)[C@@H](O)[C@@H]1O,"Geometric Mean MIC values, P. aeruginosa ATCC 27853",P. aeruginosa ATCC 27853; [11],64 µg/mL
same,"Geometric Mean MIC values, P. aeruginosa efflux parent",[8]; Table 2,8 µg/mL
same,"Geometric Mean MIC values, P. aeruginosa Δefflux",[9]; [12],1 µg/mL
same,IC50,translation; Table 2,13 nM
CC(N)C1CCC(N)C(OC2C(N)CC(N)C(O)C2OC2OC(CO)C(OC3OC(CN)C(O)C(O)C3N)C2O)O1 (stereo not drawn) [drawing 849],"Geometric Mean MIC values, E. coli ATCC 25922",E. coli ATCC 25922; Table 1,1.6 µg/mL
same,"Geometric Mean MIC values, E. coli efflux parent",E. coli efflux parent; Table 1,1 µg/mL
same,"Geometric Mean MIC values, E. coli Δefflux",[1]; Table 1,1 µg/mL
same,"Geometric Mean MIC values, P. aeruginosa ATCC 27853","P. aeruginosa ATCC 27853; Table 1, geometric mean",0.71 µg/mL
same,"Geometric Mean MIC values, P. aeruginosa efflux parent","[8]; Table 1, geometric mean",1 µg/mL
same,"Geometric Mean MIC values, P. aeruginosa Δefflux",[9]; [10],0.5 µg/mL
same,IC50,translation; Table 1,14 nM
"NCC1CCC(N)C(OC2C(N)CC(N)C(O)C2OC2OC(CO)C(OC3OC(CN)C(O)C(O)C3N)C2O)O1 (stereo not drawn) [drawing 872, reference compound]","Geometric Mean MIC values, P. aeruginosa ATCC 27853",P. aeruginosa ATCC 27853; [11],0.53 µg/mL
same,"Geometric Mean MIC values, P. aeruginosa efflux parent",[8]; Table 2,0.73 µg/mL
same,"Geometric Mean MIC values, P. aeruginosa Δefflux",[9]; [12],0.4 µg/mL
same,IC50,translation; Table 2,10 nM
